The record followed here is paper PMC9791658 (Journal of Medicinal Chemistry, 2022).

For data set [1], the target named is 14-3-3ζ/GR_pT524 (Homo sapiens, UniProt P04150+P63104). Nature of the data set: Fluorescence polarization. It is filed as binding. As to conditions: for 14-3-3/GR PPI stabilization activity (in words): FP assay. (Polarisation of emitted light reports the rotation of a fluorescent probe.)
Another data set deals with Caco-2 cells. As to the kind of experiment: Permeability across Caco-2 cell monolayers. It is filed as in vitro ADME. Particulars: for permeability classification: Caco-2; for increase of permeability vs 1: Caco-2 Papp(A to B) relative to compound 1. (In general: Caco-2 monolayers are a common model of the intestinal barrier.)
The target in the next data set is 14-3-3ζ/ERα_pT594 (Homo sapiens, UniProt P03372+P63104). Nature of the data set: Fluorescence polarization. It is filed as binding. Particulars: FP assay.
The target in data set [2] is T1, 14-3-3ζ/GR_pT524 (Homo sapiens, UniProt P63104).
T1 sequence (P63104 1-245): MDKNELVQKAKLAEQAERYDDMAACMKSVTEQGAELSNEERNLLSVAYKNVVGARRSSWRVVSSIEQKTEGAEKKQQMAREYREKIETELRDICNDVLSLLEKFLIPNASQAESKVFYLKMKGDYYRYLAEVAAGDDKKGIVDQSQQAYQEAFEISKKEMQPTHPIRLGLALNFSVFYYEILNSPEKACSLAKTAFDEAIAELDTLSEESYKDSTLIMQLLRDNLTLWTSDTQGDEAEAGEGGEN
As to the kind of experiment: SPR assay of GR_pT524 with 14-3-3ζ in the absence and presence of FC-A. As to conditions: FC-A 1 mM. It is filed as binding. A general note: In SPR one partner is held on a chip, and binding of the other changes the refractive index at the surface.

Turning to `O=C(C1=C(O)C(=O)N(c2ccccc2O)C1c1ccc([N+](=O)[O-])cc1)c1ccccc1` (centres unmarked) [Compound 23, 4-Benzoyl-3-hydroxy-1-(2-hydroxyphenyl)-5-(4-nitrophenyl)-1,5-dihydro-2H-pyrrol-2-one], the “14-3-3/GR PPI stabilization activity (in words)” value on 14-3-3ζ/GR_pT524 [1] is “only marginal activity”. In addition, in the data set with Caco-2 cells, the permeability classification entry is “medium permeability” and the “increase of permeability vs 1” value is listed as 5 fold.

Take `O=C(C1=C(O)C(=O)N(c2ccc(O)c(C(=O)O)c2)C1c1ccc([N+](=O)[O-])cc1)c1cccc(OC(F)F)c1` (centres unmarked) [Compound 19, 5-(3-(3-(Difluoromethoxy)benzoyl)-4-hydroxy-2-(4-nitrophenyl)-5-oxo-2,5-dihydro-1H-pyrrol-1-yl)-2-hydroxybenzoic Acid]: at 14-3-3ζ/ERα_pT594, the “14-3-3/ERα PPI stabilization activity (in words)” value was “abolished activity”. Besides, at 14-3-3ζ/GR_pT524 [1], the “14-3-3/GR PPI stabilization activity (in words)” value is “abolished activity”.

As for `Nc1ccc(C2C(C(=O)c3ccccc3)=C(O)C(=O)N2c2ccc(O)c(C(=O)O)c2)cc1` (centres unmarked) [Compound 17, 5-(2-(4-Aminophenyl)-3-benzoyl-4-hydroxy-5-oxo-2,5-dihydro-1H-pyrrol-1-yl)-2-hydroxybenzoic Acid], the “14-3-3/ERα PPI stabilization activity (in words)” value on 14-3-3ζ/ERα_pT594 is on record as “loss of measurable activity”. Moreover, the “14-3-3/GR PPI stabilization activity (in words)” value at 14-3-3ζ/GR_pT524 [1] was “loss of measurable activity”.

Take `O=C(C1=C(O)C(=O)N(c2ccc(O)c(C(=O)O)c2)C1c1ccccc1)c1ccccc1` (centres unmarked) [Compound 21, 5-(3-Benzoyl-4-hydroxy-5-oxo-2-phenyl-2,5-dihydro-1H-pyrrol-1-yl)-2-hydroxybenzoic Acid]: at 14-3-3ζ/ERα_pT594, the “14-3-3/ERα PPI stabilization activity (in words)” value is recorded as “loss of measurable activity”. Further, the “14-3-3/GR PPI stabilization activity (in words)” value on 14-3-3ζ/GR_pT524 [1] is “loss of measurable activity”.

With `O=C(C1=C(O)C(=O)N(c2ccc(O)c(C(=O)O)c2)C1c1ccc([N+](=O)[O-])cc1)c1ccccc1` (centres unmarked) [Compound 1, 5-(3-Benzoyl-4-hydroxy-2-(4-nitrophenyl)-5-oxo-2,5-dihydro-1H-pyrrol-1-yl)-2-hydroxybenzoic Acid], on 14-3-3ζ/GR_pT524 [1] (from EC1.2 values), the “decrease in potency for 14-3-3/GR compared to 14-3-3/ERα” value was “approximately 2 fold”. For the same molecule, in the data set on Caco-2 cells, the permeability classification result is reported as “low permeability”.

For `O=C(C1=C(O)C(=O)N(c2ccc(O)c(C(=O)O)c2)[C@H]1c1ccc([N+](=O)[O-])cc1)c1ccccc1` [(S)-1, 5-(3-Benzoyl-4-hydroxy-2-(4-nitrophenyl)-5-oxo-2,5-dihydro-1H-pyrrol-1-yl)-2-hydroxybenzoic Acid], the “14-3-3/ERα PPI stabilization activity (in words)” value at 14-3-3ζ/ERα_pT594 was “completely inactive”.

On to `O=C(O)c1cc(N2C(=O)C(O)=C(c3ccccc3)C2c2ccc([N+](=O)[O-])cc2)ccc1O` (single isomer, unassigned; (+)) [(+)-28, 2-Hydroxy-5-(3-hydroxy-5-(4-nitrophenyl)-2-oxo-4-phenyl-2,5-dihydro-1H-pyrrol-1-yl) benzoic Acid], for which, at 14-3-3ζ/ERα_pT594, the “14-3-3/ERα PPI stabilization activity (in words)” value is on record as “no 14-3-3/ERα PPI stabilization activity”.

On to `C=CC(C)(C)OC[C@H]1O[C@H](O[C@@H]2C3=C([C@H](C)COC(C)=O)C[C@H](O)[C@]3(C)/C=C3/[C@@H](COC)CC[C@H]3[C@@H](C)[C@H]2O)[C@H](O)[C@@H](O)[C@@H]1O` [FC-A, Fusicoccin A, reference compound], for which, on 14-3-3ζ/GR_pT524 [2], the “effect on the interaction between GR_pT524 and 14-3-3ζ (SPR)” value is recorded as “does not stabilize”. Moreover, at 14-3-3ζ/GR_pT524 [1], the “14-3-3/GR PPI stabilization activity (in words)” value is “does not stabilize”.

Regarding `O=C(C1=C(O)C(=O)N(c2ccc(O)cc2)C1c1ccc([N+](=O)[O-])cc1)c1ccccc1` (centres unmarked) [Compound 22, 4-Benzoyl-3-hydroxy-1-(4-hydroxyphenyl)-5-(4-nitrophenyl)-1,5-dihydro-2H-pyrrol-2-one], the “14-3-3/GR PPI stabilization activity (in words)” value at 14-3-3ζ/GR_pT524 [1] was “only marginal activity”. In the data set with Caco-2 cells, the permeability classification entry is “medium permeability” and the “increase of permeability vs 1” value came to 3 fold.

`O=C(O)c1cc(N2C(=O)C(O)=C(c3ccccc3)C2c2ccc([N+](=O)[O-])cc2)ccc1O` (centres unmarked) [Compound 28, 2-Hydroxy-5-(3-hydroxy-5-(4-nitrophenyl)-2-oxo-4-phenyl-2,5-dihydro-1H-pyrrol-1-yl) benzoic Acid]: the “14-3-3/ERα PPI stabilization activity (in words)” value on 14-3-3ζ/ERα_pT594 was “inactive”.

For `O=C(O)c1cc(N2C(=O)C(O)=C(c3ccccc3)C2c2ccc([N+](=O)[O-])cc2)ccc1O` (single isomer, unassigned; (-)) [(−)-28, 2-Hydroxy-5-(3-hydroxy-5-(4-nitrophenyl)-2-oxo-4-phenyl-2,5-dihydro-1H-pyrrol-1-yl) benzoic Acid], the “14-3-3/ERα PPI stabilization activity (in words)” value on 14-3-3ζ/ERα_pT594 was “no 14-3-3/ERα PPI stabilization activity”.
